This passage reports DC50 and Dmax results from US11059815B2, “Synthesis of small molecule histone deacetylase 6 degraders, compounds formed thereby, and pharmaceutical compositions containing them” (Wisconsin Alumni Research Foundation, priority 2018, dated 2021).

In assay [1] the target is T1, HDAC6 (Mus musculus, UniProt Q9Z2V5).
T1 construct: endogenous in cells; host or cells: mouse immortalized cell line 4935
T1 sequence (Q9Z2V5 1-1149): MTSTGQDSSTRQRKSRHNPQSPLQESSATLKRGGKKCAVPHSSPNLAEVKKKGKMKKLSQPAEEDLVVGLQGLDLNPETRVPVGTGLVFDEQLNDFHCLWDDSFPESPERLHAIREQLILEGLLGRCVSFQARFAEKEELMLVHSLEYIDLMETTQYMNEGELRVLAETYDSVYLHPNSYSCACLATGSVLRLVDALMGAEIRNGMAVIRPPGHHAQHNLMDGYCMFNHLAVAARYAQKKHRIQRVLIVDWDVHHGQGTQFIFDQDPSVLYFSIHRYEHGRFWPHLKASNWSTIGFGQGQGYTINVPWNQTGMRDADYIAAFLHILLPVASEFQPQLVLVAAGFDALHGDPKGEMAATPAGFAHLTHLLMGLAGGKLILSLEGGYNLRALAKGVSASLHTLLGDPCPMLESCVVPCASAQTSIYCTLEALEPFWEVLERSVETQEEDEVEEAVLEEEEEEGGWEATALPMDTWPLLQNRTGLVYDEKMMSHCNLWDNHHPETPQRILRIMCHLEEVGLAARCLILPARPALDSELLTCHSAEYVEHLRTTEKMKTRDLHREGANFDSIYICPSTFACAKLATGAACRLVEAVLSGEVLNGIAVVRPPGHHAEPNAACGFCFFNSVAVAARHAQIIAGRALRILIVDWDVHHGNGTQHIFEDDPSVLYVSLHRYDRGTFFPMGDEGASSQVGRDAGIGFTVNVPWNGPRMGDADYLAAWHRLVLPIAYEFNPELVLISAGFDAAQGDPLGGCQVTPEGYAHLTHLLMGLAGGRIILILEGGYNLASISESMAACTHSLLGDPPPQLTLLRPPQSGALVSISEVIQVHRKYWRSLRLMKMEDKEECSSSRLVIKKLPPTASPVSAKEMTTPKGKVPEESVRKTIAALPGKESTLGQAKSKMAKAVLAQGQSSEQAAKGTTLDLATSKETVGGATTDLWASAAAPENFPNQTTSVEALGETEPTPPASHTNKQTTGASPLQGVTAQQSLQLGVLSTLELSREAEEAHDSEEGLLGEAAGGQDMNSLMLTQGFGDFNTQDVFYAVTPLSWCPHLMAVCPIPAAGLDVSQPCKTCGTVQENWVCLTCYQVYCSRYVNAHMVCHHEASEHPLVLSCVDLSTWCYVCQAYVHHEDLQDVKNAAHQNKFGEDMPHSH
Kind of assay: In-cell ELISA of HDAC6 in mice immortalized cell line 4935. Particulars: mice immortalized cell line 4935, in-cell ELISA. It counts as cell-based. As for the experimental part:
FIG. 19 is a dose-response curve for HDAC6 expression as a function of concentration for compounds 2 and 3j from Part 2 of the Example section.
The degradation efficiency of HDAC6 induced by 2 and 3j in mice immortalized cell line 4935 was also tested using western blot and in-cell ELISA. In concentrations ranging from 10 nM to 10 μM, VHL-based degrader 3j induced more HDAC6 degradation and tubulin acetylation than CRBN-based degrader 2 (data not shown). […] The maximal degradation percentage for HDAC6 induced by 3j is 56.8%, which is better than 45.3% of Dmax induced by compound 2. […] The VHL E3 ligase-based degrader 3j may have advantages over CRBN-based degrader 2 in animal studies using mice as the model system.
(An ELISA detects its analyte on a solid surface through an enzyme-linked reagent.)

Assay [2] has as its target T2, HDAC6 (Homo sapiens, UniProt Q9UBN7).
T2 construct: an in-cell ELISA was used to analyze the HDAC6 content in MM1S cells; endogenous in cells; host or cells: MM1S (ATCC CRL-2974)
T2 sequence (Q9UBN7 1-1215): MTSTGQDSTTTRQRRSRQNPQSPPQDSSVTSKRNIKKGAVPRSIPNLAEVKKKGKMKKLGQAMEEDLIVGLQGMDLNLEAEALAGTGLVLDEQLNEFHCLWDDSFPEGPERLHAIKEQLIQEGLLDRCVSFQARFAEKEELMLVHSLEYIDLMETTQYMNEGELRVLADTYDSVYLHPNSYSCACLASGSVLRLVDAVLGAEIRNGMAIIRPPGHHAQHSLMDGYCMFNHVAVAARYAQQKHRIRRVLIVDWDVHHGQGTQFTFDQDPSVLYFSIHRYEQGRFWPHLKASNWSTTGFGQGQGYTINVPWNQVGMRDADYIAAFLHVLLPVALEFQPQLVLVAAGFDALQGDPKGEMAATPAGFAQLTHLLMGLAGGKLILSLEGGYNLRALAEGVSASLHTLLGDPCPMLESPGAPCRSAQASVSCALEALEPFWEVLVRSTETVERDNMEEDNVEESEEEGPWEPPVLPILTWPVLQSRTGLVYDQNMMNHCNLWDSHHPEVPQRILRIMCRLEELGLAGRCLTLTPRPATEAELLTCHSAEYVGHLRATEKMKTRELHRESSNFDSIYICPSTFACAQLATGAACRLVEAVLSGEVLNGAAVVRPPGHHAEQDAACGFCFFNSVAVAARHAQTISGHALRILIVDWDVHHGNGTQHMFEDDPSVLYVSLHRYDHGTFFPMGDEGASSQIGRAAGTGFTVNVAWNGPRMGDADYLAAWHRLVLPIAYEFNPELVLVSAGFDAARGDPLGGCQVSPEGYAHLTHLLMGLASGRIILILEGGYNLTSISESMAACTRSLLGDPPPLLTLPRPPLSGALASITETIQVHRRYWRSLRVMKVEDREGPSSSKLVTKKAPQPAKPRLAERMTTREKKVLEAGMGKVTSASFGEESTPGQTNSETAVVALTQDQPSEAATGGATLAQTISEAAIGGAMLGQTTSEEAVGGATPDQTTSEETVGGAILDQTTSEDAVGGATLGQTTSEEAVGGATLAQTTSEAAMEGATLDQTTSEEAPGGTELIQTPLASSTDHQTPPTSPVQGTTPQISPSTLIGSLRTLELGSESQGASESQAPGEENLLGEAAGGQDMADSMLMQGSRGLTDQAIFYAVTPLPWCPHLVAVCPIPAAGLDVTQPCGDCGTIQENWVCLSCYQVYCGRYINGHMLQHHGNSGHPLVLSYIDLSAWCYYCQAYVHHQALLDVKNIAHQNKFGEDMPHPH
The assay is described as follows: In-cell ELISA of HDAC6 protein level in MM1S cells. As to conditions: 1 nM to 3 μM, 6 h. The format is cell-based.

Structures are written as SMILES.

For the compound `CCCCN(Cc1ccc(C(=O)NO)cc1)C(=O)Nc1ccc(OCCCCCn2cc(CNc3cccc4c3C(=O)N(C3CCC(=O)NC3=O)C4=O)nn2)cc1` (stereo not shown) [Compound 2], the DC50 in assay [1] was around 17 nM; in assay [2] (read-out: DC50 (Part 2)) it was 2.2 nM. Besides, the Dmax came to 45.3% in assay [1] (read-out: maximal degradation percentage for HDAC6 (Dmax)) and 85.6% in assay [2] (MM1.S, read-out: Dmax (Part 2)).
